The source of these data is PMC3764026, “Adaptive Evolution of Escherichia coli to an α-Peptide/β-Peptoid Peptidomimetic Induces Stable Resistance” (PLoS ONE, 2013).

In brackets after ≈: the same amount, converted by molar mass. Where two headings read alike, the source gives them in different places.

In experiment [1] the test system is isolates from peptidomimetic 1-exposed E. coli ATCC 25922 lineages. On the procedure: Continuous selection of resistance was performed for peptidomimetic 1 (Figure 1) and for the clinically relevant natural antimicrobial peptide, polymyxin B. A bacterial suspension of a single colony of E. coli ATCC 25922 was re-inoculated (10 µl) five times in unsupplemented MHB (990 µl). It was then re-inoculated in MHB supplemented with peptidomimetic 1 (ten lineages) or polymyxin B (ten lineages), and after ten re-inoculations at constant peptidomimetic or polymyxin B concentration, the concentrations were doubled. […] Four lineages grown in MHB with MilliQ water were included as control. Re-inoculations were performed twice a day, but were reduced to once a day when growth was slower as assessed by turbidity of the cultures. The total number of passages (supplemented with peptidomimetic/AMP) was 77 times equivalent to approx. 500 generations. For each increase in concentration the lineages were preserved as freezing stocks. Ten colony isolates were randomly selected from each lineage population at 32×MIC and preserved as freezing stocks.
MIC was determined by using the micro-dilution method according to guidelines of the Clinical and Laboratory Standards Institute. Peptidomimetic 1 and erythromycin 1∶2 serial dilutions were prepared from 1024 µg/mL stock solutions to give a final range of 512-0.5 µg/mL in the wells. Ampicillin 1∶2 serial dilutions were prepared from a 256 µg/mL stock solution to give a final range of 128-0.13 µg/mL in the wells. Polymyxin B and gentamicin 1∶2 serial dilutions were prepared from a 64 µg/mL stock solution to give a final range of 32-0.03 µg/mL in the wells.
The population lineages were tested for their susceptibility towards peptidomimetic 1, polymyxin B, gentamicin and ampicillin. Single-culture isolates selected from these populations were additionally tested against peptidomimetic 1, polymyxin B, erythromycin and the five reference AMPs. To estimate the level of cross-resistance to closely related peptidomimetics, MIC determinations were performed for peptidomimetics 2 and 3 (Figure 1) towards selected isolates. The bacterial suspensions were grown overnight in MHB at 37°C for determination of the population MIC, or individual isolates were grown overnight on non-selective BHI agar at 37°C. […] In all experiments, bacterial cells were suspended in 0.9% saline to give a turbidity of 0.13 at OD546 (approximately 1×10^8 CFU/mL) and diluted in MHB pH 7.4 to a final concentration of 5×10^5 CFU/mL in each well. Polypropylene plates (Nunc 442587) were used to minimize peptide binding, and the incubation time was 18–20 hours at 37°C. […] MIC was found in a minimum of two technical (population MIC) or biological (isolate MIC) replicates as the lowest concentration of the AMP or antibiotic where no visible growth was observed.

Experiment [2] deals with Escherichia coli ATCC 25922. It is filed as cell-based. The settings on record: wild-type E. coli ATCC 25922; MHB pH 7.4, 5×10^5 CFU/mL, 37°C, 18–20 h. Here is the method: All experiments were performed with Escherichia coli ATCC 25922. Stock cultures of the wild-type strain and lineage isolates were stored at –80°C in 4% (w/v) glycerol, 0.5% (w/v) glucose, 2% (w/v) skimmed milk powder and 3% (w/v) tryptone soy powder. Lineage populations were frozen at –80°C in 50% (w/v) glycerol. All experiments were performed at 37°C. Experiments were carried out in cation-adjusted Mueller Hinton II broth (MHB) (Becton Dickinson 212322) adjusted to pH 7.4 or in 1% (w/v) peptone (Becton Dickinson 211677) for MIC determination of natural AMPs. Brain Heart Infusion (BHI) (CM1135) with agar (VWR 20768.292) 1.5% as gelling agent was used throughout for colony plating.
MIC was determined by using the micro-dilution method according to guidelines of the Clinical and Laboratory Standards Institute. Peptidomimetic 1 and erythromycin 1∶2 serial dilutions were prepared from 1024 µg/mL stock solutions to give a final range of 512-0.5 µg/mL in the wells. Ampicillin 1∶2 serial dilutions were prepared from a 256 µg/mL stock solution to give a final range of 128-0.13 µg/mL in the wells. Polymyxin B and gentamicin 1∶2 serial dilutions were prepared from a 64 µg/mL stock solution to give a final range of 32-0.03 µg/mL in the wells. Also, 1∶2 serial dilutions of the AMPs KR-12, IsCTp, melittin and PEP-1-K were prepared from 64 µg/mL stock solutions to give a final range of 32-0.03 µg/mL in the wells; however this was performed in 1% peptone instead of in MHB since activity was drastically diminished in the latter (not shown).
The population lineages were tested for their susceptibility towards peptidomimetic 1, polymyxin B, gentamicin and ampicillin. Single-culture isolates selected from these populations were additionally tested against peptidomimetic 1, polymyxin B, erythromycin and the five reference AMPs. To estimate the level of cross-resistance to closely related peptidomimetics, MIC determinations were performed for peptidomimetics 2 and 3 (Figure 1) towards selected isolates. […]

Where [3] appears, read: the three most resistant isolates from lineage no. 2.

Turning to `CC(=O)N[C@@H](CCCCN)C(=O)N(CCC(=O)N[C@@H](CCCCN)C(=O)N(CCC(=O)N[C@@H](CCCCN)C(=O)N(CCC(=O)N[C@@H](CCCCN)C(=O)N(CCC(=O)N[C@@H](CCCCN)C(=O)N(CCC(=O)N[C@@H](CCCCN)C(=O)N(CCC(=O)N[C@@H](CCCCN)C(=O)N(CCC(=O)N[C@@H](CCCCN)C(=O)N(CCC(N)=O)[C@@H](C)c1ccccc1)[C@@H](C)c1ccccc1)[C@@H](C)c1ccccc1)[C@@H](C)c1ccccc1)[C@@H](C)c1ccccc1)[C@@H](C)c1ccccc1)[C@@H](C)c1ccccc1)[C@@H](C)c1ccccc1` [peptidomimetic 2], the MIC in experiment [1] (isolates 2–4 and 2–6 (shared values), two biological replicates, mean when results varied) stood at 512 µg/mL (≈ 206 µM); in experiment [1] (isolates 2–7, 2–9 and 2–10 (shared values), two biological replicates, mean when results varied), 512 µg/mL (≈ 206 µM); in experiment [1] (six of the ten isolates from lineage no. 5 (data point shared with wild type), two biological replicates), 64 µg/mL (≈ 25.7 µM). The “wt MIC” value in experiment [2] was 64 µg/mL.

As to `CC(=O)N[C@@H](CCCCNC(=N)N)C(=O)N(CCC(=O)N[C@@H](CCCCNC(=N)N)C(=O)N(CCC(=O)N[C@@H](CCCCNC(=N)N)C(=O)N(CCC(=O)N[C@@H](CCCCNC(=N)N)C(=O)N(CCC(=O)N[C@@H](CCCCNC(=N)N)C(=O)N(CCC(=O)N[C@@H](CCCCNC(=N)N)C(=O)N(CCC(N)=O)Cc1ccccc1)Cc1ccccc1)Cc1ccccc1)Cc1ccccc1)Cc1ccccc1)Cc1ccccc1` [peptidomimetic 3], in experiment [1] (setting [3]), the minimum inhibitory concentration (MIC) worked out at 32 µg/mL (≈ 15.6 µM) and the “MIC levels higher than seen for the wild type strain” value stood at 8 times. The “wt MIC” value in experiment [2] amounted to 4 µg/mL.

The term MIC denotes the lowest concentration found to suppress growth.
